Data from patent US12187720B2, “Compounds for treatment of cancer” (ONCTERNAL THERAPEUTICS, INC., priority 2010, dated 2025).
Like-named read-outs stand apart in the source and are kept apart here.

Legend:
[1] = tested on: PC-3 xenografts; conditions: for mice that lost more than 15% body weight: mouse, in vivo
From the text: (§1) In vivo antitumor activity [tumor growth inhibition (% T/C), tumor growth delay (T-C value), and tumor cell kill (total log cell kill)].

[2] = Metabolic stability in mouse liver microsomes; type: in vitro ADME; conditions: for half-life at 0.5 μM: mouse, liver microsomes, pH 7.4, Table 20, read-out: Half life in Mouse liver microsome
[3] = Metabolic stability in dog liver microsomes; type: in vitro ADME; conditions: Table 20; for half-life at 0.5 μM: dog, dog liver microsomes, pH 7.4, read-out: Half life in Dog liver microsome
[4] = tested on: Bovine brain tubulin; assay: In vitro tubulin polymerization assay (bovine brain tubulin); type: biochemical; conditions: 10 μM
[5] = in vivo; conditions: Sprague-Dawley, rat, plasma
[6] = in vivo; conditions: male, ICR, mouse, plasma, iv, 15 mg/kg
[7] = Rotarod test (in vivo neurotoxicity) in ICR mice; design: species or system mouse; conditions: 1h 5 or 15 mg/kg, vinblastine 0.5 mg/kg, i.p. daily
Procedure: Rotarod test. […] The rotarod test was performed twice a week.

[8] = Metabolic stability in rat liver microsomes; type: in vitro ADME; conditions: Table 20; for half-life at 0.5 μM: rat, liver microsomes, pH 7.4, read-out: Half life in Rat liver microsome
[9] = tested on: A375 human melanoma xenograft; assay: In vivo efficacy, A375 human melanoma xenograft in mice
Procedure: DTIC at 60 mg/kg was used as a positive control again.
PC-3 and A375 tumor xenograft studies.
as §1

[10] = Pharmacokinetic study in Sprague-Dawley rats
[11] = tested on: tubulin (colchicine, vinblastine and paclitaxel binding sites); assay: Mass spectrometry competitive binding assay on tubulin
From the text: MS competition binding assay. […] Each reaction was run in triplicate.

[12] = tested on: PC-3 cells; assay: Apoptosis detection by ELISA (cytoplasmic DNA-histone complexes), PC-3 cells; type: cell-based, human; conditions: PC-3 and A375 cells, 24 h
From the text: The levels of DNA-histone complexes were used to represent cell apoptosis.
Apoptosis detection by ELISA. Quantification of the enrichment of mono- and oligonucleosomes in the cytoplasm was used to determine the ability of the compounds to induce apoptosis (cell death detection ELISA PLUS, Roche, Germany) following the manufacturer's instructions.

[13] = Metabolic stability in monkey liver microsomes; type: in vitro ADME; conditions: Table 20
[14] = tested on: NCI/ADR-RES; assay: SRB cytotoxicity assay, P-gp over-expressing NCI/ADR-RES cells; type: cell-based, human; conditions: NCI/ADR-RES versus OVCAR-8
[15] = Metabolic stability in human liver microsomes; conditions: for half-life at 0.5 μM: human, liver microsomes, pH 7.4
[16] = tested on: MES-SA/DX5; assay: SRB growth inhibition assay, P-gp over-expressing MES-SA/DX5 cells; type: cell-based; conditions: Table 6; read-out: IC50 ± SEM MES-SA/Dx5
[17] = Pharmacokinetic study in ICR mice
[18] = tested on: WM-164 melanoma cells; assay: Microtubule imaging (immunofluorescence) in WM-164 melanoma cells; type: cell-based, human; conditions: 18 h
From the text: Primary antibody for tubulin and fluorescence-labeled secondary antibody were subsequently added to the cells. Cell nuclei were stained by DAPI. Whole Cell Stain Green was also applied to all cells. All images were acquired with an Olympus IX71 inverted fluorescence microscope (Olympus Corp., Tokyo, Japan) with overlays from separate images of tubulin (red), nuclei (blue), and whole cells (green).

[19] = tested on: A375 cells; assay: Cell cycle analysis (flow cytometry) in A375 cells; type: cell-based, human; conditions: 24 h
[20] = tested on: B16-F1 melanoma cells; assay: B16-F1 melanoma colony formation assay in soft agar; type: cell-based, mouse; conditions: 14 days
Procedure: B16-F1 melanoma cells were plated at a colony-forming density (2000 cells per well on six-well plates) on top of 0.8% base agar. Cells were grown in 0.4% agar together with DMEM medium supplemented with fetal bovine serum and an antibiotic-antimycotic solution at 37° C. in an atmosphere of 95% air and 5% CO2. […] Compounds were added to the media from 1 mM DMSO stock solutions, and a corresponding dilution of DMSO was used as control. Cells were grown for 14 days. Plates were photographed, and the number of colonies was measured by Artek 880 Automated Colony Counter (Artek Systems Corporation, Farmingdale, NY).

[21] = tested on: T1, tubulin colchicine binding site; assay: [3H]-colchicine competition-binding scintillation proximity assay
T1 construct: […]

[22] = Permeability (drug-like properties); conditions: mean from duplicate studies
[23] = tested on: PC-3/TxR tumors; conditions: PC-3/TxR xenograft, b.i.d × 5/w, end point day 26
[24] = Pharmacokinetic study in beagle dogs; conditions: dog, in vivo
[25] = tested on: glioma cells; assay: SRB cytotoxicity assay, glioma cells; conditions: read-out: potency in glioma cells
[26] = tested on: PC-3; assay: SRB cytotoxicity assay, PC-3 prostate cancer cells; type: cell-based, human; conditions: Homo sapiens, PC-3; Table 16B; read-out: IC50 in PC3
From the text: Cells were stained with SRB solution.

[27] = tested on: Porcine brain tubulin; assay: In vitro microtubule polymerization assay (porcine brain tubulin); type: biochemical; conditions: 5 μM, at 15 min
[28] = tested on: HUVECs; assay: Endothelial cell growth inhibition (SRB), HUVEC; type: cell-based, human
[29] = tested on: BCRP; assay: in vitro; conditions: human

COc1cc(C(=O)c2csc(-c3ccccc3)n2)cc(OC)c1OC [1h, (2-Phenyl-thiazol-4-yl)-(3,4,5-trimethoxy-phenyl)-methanone]
dose that did not cause greater than 10% loss of body weight (ICR mice, 4 consecutive days of intraperitoneal dosing): up to 30 mg/kg | % T/C ([1]; 5 mg/kg i.p.): 29% | % T/C ([1]; 15 mg/kg i.p.): 4% | % T/C ([1]; ip, 15 mg/kg, 504 h): 4% | mice that lost more than 15% body weight [1]: 1 of 8 | half-life at 0.5 μM [2]: < 5 min | half-life at 0.5 μM [3]: 19 min | inhibition of tubulin polymerization ([4]; 15 min): 90% | inhibition of tubulin polymerization ([4]; 20 min incubation, versus vehicle): 47% | Vd ([5]; iv, […]): 7.6 L/kg | clearance ([5]; iv, […]): 6 mL/min/kg | half-life ([5]; iv, […]): 1440 min | clearance ([5]; female, iv): 7.7 ± 1 mL/min/kg | AUC [6]: 1900 ng·h/mL | half-life [6]: 140 min | time on the rotating rod versus vehicle group [7]: no significant difference | half-life at 0.5 μM [8]: 31 min | T-C (tumor growth delay) ([9]; Melanoma (A375) xenograft, 20 mg/kg i.p.): 10 days | Total log cell kill ([9]; ip, 20 mg/kg, 110.4 h): 0.7 | Vss (volume of distribution following intravenous dosing) ([10]; IV, […] (1h, 2r), 5 mg/kg (5Ha, 5Hc)): 4.9 ± 1.9 L/kg | RatPK_PO10mgk_AUC ([10]; rat, PO 10 mg/kg): 37 µg·min/mL | F (percent oral bioavailability), rat ([10]; rats, PO versus IV): 3.3% | competition for tubulin binding sites [11]: specifically competed with colchicine binding to tubulin | concentration inducing apoptosis [12]: 50 nM | half-life at 0.5 μM ([13]; monkey, monkey liver microsomes, pH 7.4, read-out: Half life in Monkey liver microsome): < 5 min

COc1cc(C(=NC#N)c2csc(-c3ccccc3)n2)cc(OC)c1OC [2j, N-((2-phenylthiazol-4-yl)(3,4,5-trimethoxyphenyl)methylene)cyanamide]
Resistance factor [14]: 0.4 | half-life at 0.5 μM [15]: < 5 min

COc1cc(C(=O)c2csc(-c3ccc(F)cc3)n2)cc(OC)c1OC [2k]
dose that did not cause greater than 10% loss of body weight (mouse, in vivo, ip): ≤ 15 mg/kg | % T/C ([1]; 5 mg/kg i.p.): 21% | % T/C ([1]; 15 mg/kg i.p.): 24% | % T/C ([1]; Prostate (PC-3) xenograft, 5 mg/kg i.p., 21 days): 21% | % T/C ([1]; Prostate (PC-3) xenograft, 15 mg/kg i.p., 21 days): 24% | mice that lost more than 15% body weight [1]: 2 out of 7 | Half life in Mouse liver microsome ([2]; Table 20): 9 min | Half life in Dog liver microsome [3]: 16 min | Half life in Rat liver microsome [8]: 32 min | IC50 [16]: 19 nM | T-C (tumor growth delay) ([9]; Melanoma (A375) xenograft, 15 mg/kg i.p.): 11 days | Total log cell kill ([9]; Melanoma (A375) xenograft, 15 mg/kg i.p., doubling time 4.6 d): 0.7 | half life in human liver microsome ([15]; Table 20): 10 min | concentration inducing apoptosis [12]: 50 nM | AUC ([17]; Mice, 15 mg/kg i.v.): 22000 ng·h/mL | CL ([17]; Mice, 15 mg/kg i.v.): 112 mL/min/kg | Vss ([17]; Mice, 15 mg/kg i.v.): 6.6 L/kg | Half life in Monkey liver microsome [13]: <5 min

COc1ccc(-c2nc(C(=O)c3ccc(F)cc3)c[nH]2)cc1 [12cb, (4-fluorophenyl)(2-(4-methoxyphenyl)-1H-imidazol-4-yl)methanone]
effect on microtubules [18]: microtubule fragmentation | concentration from which most cells are arrested in the G2/M phase [19]: 200 nM | concentration with effective inhibition of colony formation [20]: 20 nM

COc1cc(C(=O)c2c[nH]c(-c3ccc(C)cc3)n2)cc(OC)c1OC [12da, (2-(p-tolyl)-1H-imidazol-4-yl)(3,4,5-trimethoxyphenyl)methanone]
half-life at 0.5 μM [2]: 8 min | half-life at 0.5 μM [3]: 17 min | effect on microtubules [18]: microtubule fragmentation | half-life at 0.5 μM [8]: 28 min | half-life at 0.5 μM [15]: 23 min | colchicine site binding in words [21]: highest binding affinity

CC(C)NCC(O)COc1cccc2ccccc12 (stereo not shown) [Propranolol]
Papp(A→B) in CaCO-2 assay [22]: (19) 10^−6 cm/s

COc1cc(C(=O)c2csc(Nc3ccc4[nH]ccc4c3)n2)cc(OC)c1OC [compound 55, (2-(1H-INDOL-5-YLAMINO)THIAZOL-4-YL)(3,4,5-TRIMETHOXYPHENYL)METHANONE]
Tumor size End ([23]; PO 10 mpk): 1152 ± 433 mm^3 | Tumor size End ([23]; PO 30 mpk): 101 ± 19 mm^3 | clearance in words, dogs [24]: moderate clearance | IC50 [25]: 22 nM | bioavailability ([5]; ICR, beagle, po): 24 to 36% | clearance in words, rats ([10]; rat, in vivo): low clearance | competition for tubulin binding sites [11]: competed effectively with colchicine | Papp(A→B) in CaCO-2 assay [22]: 99 10^−6 cm/s | IC50 [26]: 28 nM | inhibition of tubulin polymerization [27]: 40% | clearance in words, mice ([17]; mouse, in vivo): moderate clearance

COc1cccc2c1C(=O)c1c(O)c3c(c(O)c1C2=O)C[C@@](O)(C(=O)CO)C[C@@H]3O[C@H]1C[C@H](N)[C@H](O)[C@H](C)O1 [doxorubicin]
times more active against endothelial cells than against cancer cells [28]: not specific to endothelial cells | IC50 ([28]; N = 3): 274 nM

CC[C@]1(O)C[C@@H]2CN(CCc3c([nH]c4ccccc34)[C@@](C(=O)OC)(c3cc4c(cc3OC)N(C)[C@H]3[C@@](O)(C(=O)OC)[C@H](OC(C)=O)[C@]5(CC)C=CCN6CC[C@]43[C@@H]65)C2)C1 [vinblastine, reference compound]
IC50 [29]: 25 ± 1 nM | % T/C ([1]; 0.5 mg/kg q2d, day 22): 29% | % T/C ([1]; Prostate (PC-3) xenograft, 0.5 mg/kg, q2d): 29% | time on the rotating rod versus vehicle group [7]: gradually reduced the time | competition for tubulin binding sites [11]: did not inhibit the colchicine-tubulin binding
